Results published in PubChem BioAssay AID1918991 (Molecular Pharmacology Branch, DTP, NCI, 2023).
Where “and” joins values, the source holds several entries; their conditions need not be identical. Equal values may be shown once.

System: 186277-243-T-J2-PDC complex spheroid growth
Assay: Anticancer human tumor 186277-243-T-J2-PDC patient-derived colon adenocarcinoma cell line growth inhibition [AhR]
Conditions: for viability, T/C: stronger effect = lower value; for IC50: curve of first compound
Outline: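 Complex tumor spheroids co-cultured with HUVEC and human MSC stroma; AhR antagonists tested in combination with standard-of-care and investigational agents. Top concentration at or near clinical Cmax (else 10 microM), half-log dilutions; growth expressed as percent test/control.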

[1] = second compound 0.1 µM, first compound 0.00949 µM
[2] = second compound 0.1 µM, first compound 0.03 µM
[3] = second compound 0.1 µM, first compound 0.0949 µM
[4] = second compound 0.1 µM, first compound 0.3 µM
[5] = second compound 0.1 µM, first compound 0.949 µM
[6] = second compound 0.1 µM, first compound 3 µM
[7] = second compound 0.316 µM, first compound 0.00949 µM
[8] = second compound 0.316 µM, first compound 0.03 µM
[9] = second compound 0.316 µM, first compound 0.0949 µM
[10] = second compound 0.316 µM, first compound 0.3 µM
[11] = second compound 0.316 µM, first compound 0.949 µM
[12] = second compound 0.316 µM, first compound 3 µM
[13] = second compound 1 µM, first compound 0.00949 µM
[14] = second compound 1 µM, first compound 0.03 µM
[15] = second compound 1 µM, first compound 0.0949 µM
[16] = second compound 1 µM, first compound 0.3 µM
[17] = second compound 1 µM, first compound 0.949 µM
[18] = second compound 1 µM, first compound 3 µM
[19] = second compound 3.16 µM, first compound 0.00949 µM
[20] = second compound 3.16 µM, first compound 0.03 µM
[21] = second compound 3.16 µM, first compound 0.0949 µM
[22] = second compound 3.16 µM, first compound 0.3 µM
[23] = second compound 3.16 µM, first compound 0.949 µM
[24] = second compound 3.16 µM, first compound 3 µM
[25] = second compound 10 µM, first compound 0.00949 µM
[26] = second compound 10 µM, first compound 0.03 µM
[27] = second compound 10 µM, first compound 0.0949 µM
[28] = second compound 10 µM, first compound 0.3 µM
[29] = second compound 10 µM, first compound 0.949 µM
[30] = second compound 10 µM, first compound 3 µM
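Further: spheroids exposed to compounds for seven days before the viability read.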
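Wherever viability, T/C is given: luminescent signal used as a stand-in for viable cell amount; 100% = DMSO vehicle control wells.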

Question: Which viability, T/C (compound 0.000949 µM) does the source give for `CCc1c2c(nc3ccc(O)cc13)-c1cc3c(c(=O)n1C2)COC(=O)[C@]3(O)CC` here?
Answer: Its viability, T/C is 118% and 125% and 49.3%.

Question: What about the viability, T/C (compound 0.003 µM) of the same compound?
Answer: The viability, T/C was 111% and 144% and 37.7%.

Question: And the viability, T/C (compound 0.00949 µM)?
Answer: The viability, T/C was 70.2% and 115% and 18.8%.

Question: What about the viability, T/C (compound 0.03 µM) of the same compound?
Answer: Its viability, T/C is 49.7% and 83% and 17.6%.

Question: What about the viability, T/C (compound 0.0949 µM) of the same compound?
Answer: Its viability, T/C is 29.7% and 43.6% and 10.7%.

Question: What about the viability, T/C (compound 0.3 µM) of the same compound?
Answer: Its viability, T/C is 15.3% and 26.9% and 7.34%.

Question: Which results are given for `O=C(C=Cn1cnc(-c2cc(C(F)(F)F)cc(C(F)(F)F)c2)n1)NNc1cnccn1` + Cc1cncc(-c2nc(NCCc3c[nH]c4ccccc34)c3ncn(C(C)C)c3n2)c1?
Answer: IC50 (second compound 0.1 µM): 430 nM; IC50 (second compound 0.316 µM): 456 nM; IC50 (second compound 1 µM): 482 nM; IC50 (second compound 3.16 µM): 380 nM; IC50 (second compound 10 µM): 40.4 nM; viability, T/C [1]: 103%; viability, T/C [2]: 111%; viability, T/C [3]: 114%; viability, T/C [4]: 67.2%; viability, T/C [5]: 13.3%; viability, T/C [6]: 4.12%; viability, T/C [7]: 110%; viability, T/C [8]: 105%; viability, T/C [9]: 124%; viability, T/C [10]: 73.2%; viability, T/C [11]: 13.6%; viability, T/C [12]: 4.58%; viability, T/C [13]: 109%; viability, T/C [14]: 123%; viability, T/C [15]: 123%; viability, T/C [16]: 75.2%; viability, T/C [17]: 15.4%; viability, T/C [18]: 5.33%; viability, T/C [19]: 117%; viability, T/C [20]: 116%; viability, T/C [21]: 127%; viability, T/C [22]: 60.1%; viability, T/C [23]: 15.1%; viability, T/C [24]: 6.75%; viability, T/C [25]: 67.5%; viability, T/C [26]: 60.2%; viability, T/C [27]: 21.6%; viability, T/C [28]: 7.78%; viability, T/C [29]: 3.76%; viability, T/C [30]: 3.02%

Question: `O=C(C=Cc1cccc(S(=O)(=O)Nc2ccccc2)c1)NO` + CC(CO)NC(=O)c1cc(-c2ccc(Cl)cc2)nn(-c2cnn(C)c2)c1=O was tested. Which IC50 (second compound 0.1 µM) did it give?
Answer: The IC50 was 324 nM.

Question: And the IC50 (second compound 0.316 µM)?
Answer: The IC50 was 347 nM.

Question: And the IC50 (second compound 1 µM)?
Answer: The IC50 was 285 nM.

Question: What about the IC50 (second compound 3.16 µM) of the same compound?
Answer: The IC50 was 248 nM.

Question: And the IC50 (second compound 10 µM)?
Answer: Its IC50 is 164 nM.

Question: What about the viability, T/C (second compound 0.1 µM, first compound 0.0316 µM) of the same compound?
Answer: Its viability, T/C is 101%.

Question: And the viability, T/C (second compound 0.1 µM, first compound 0.1 µM)?
Answer: The viability, T/C was 94.5%.

Question: And the viability, T/C (second compound 0.1 µM, first compound 0.316 µM)?
Answer: Its viability, T/C is 50.5%.

Question: What about the viability, T/C (second compound 0.1 µM, first compound 1 µM) of the same compound?
Answer: The viability, T/C was 9.56%.

Question: What about the viability, T/C (second compound 0.1 µM, first compound 3.16 µM) of the same compound?
Answer: The viability, T/C was 1.99%.

Question: What about the viability, T/C (second compound 0.1 µM, first compound 10 µM) of the same compound?
Answer: Its viability, T/C is 0.31%.

Question: What about the viability, T/C (second compound 0.316 µM, first compound 0.0316 µM) of the same compound?
Answer: Its viability, T/C is 92.5%.

Question: What about the viability, T/C (second compound 0.316 µM, first compound 0.1 µM) of the same compound?
Answer: The viability, T/C was 83.8%.

Question: And the viability, T/C (second compound 0.316 µM, first compound 0.316 µM)?
Answer: The viability, T/C was 54.3%.

Question: What about the viability, T/C (second compound 0.316 µM, first compound 1 µM) of the same compound?
Answer: The viability, T/C was 10.1%.

Question: And the viability, T/C (second compound 0.316 µM, first compound 3.16 µM)?
Answer: Its viability, T/C is 2%.

Question: What about the viability, T/C (second compound 0.316 µM, first compound 10 µM) of the same compound?
Answer: Its viability, T/C is 0.32%.

Question: And the viability, T/C (second compound 1 µM, first compound 0.0316 µM)?
Answer: Its viability, T/C is 86.1%.

Question: What about the viability, T/C (second compound 1 µM, first compound 0.1 µM) of the same compound?
Answer: Its viability, T/C is 80.5%.

Question: What about the viability, T/C (second compound 1 µM, first compound 0.316 µM) of the same compound?
Answer: Its viability, T/C is 46.7%.

Question: And the viability, T/C (second compound 1 µM, first compound 1 µM)?
Answer: Its viability, T/C is 10.7%.

Question: And the viability, T/C (second compound 1 µM, first compound 3.16 µM)?
Answer: The viability, T/C was 1.43%.

Question: And the viability, T/C (second compound 1 µM, first compound 10 µM)?
Answer: Its viability, T/C is 0.32%.

Question: And the viability, T/C (second compound 3.16 µM, first compound 0.0316 µM)?
Answer: Its viability, T/C is 91.5%.

Question: What about the viability, T/C (second compound 3.16 µM, first compound 0.1 µM) of the same compound?
Answer: Its viability, T/C is 77.7%.

Question: And the viability, T/C (second compound 3.16 µM, first compound 0.316 µM)?
Answer: The viability, T/C was 43.4%.

Question: And the viability, T/C (second compound 3.16 µM, first compound 1 µM)?
Answer: The viability, T/C was 8.38%.

Question: And the viability, T/C (second compound 3.16 µM, first compound 3.16 µM)?
Answer: Its viability, T/C is 1.57%.

Question: And the viability, T/C (second compound 3.16 µM, first compound 10 µM)?
Answer: The viability, T/C was 0.28%.

Question: What about the viability, T/C (second compound 10 µM, first compound 0.0316 µM) of the same compound?
Answer: Its viability, T/C is 70.2%.

Question: And the viability, T/C (second compound 10 µM, first compound 0.1 µM)?
Answer: Its viability, T/C is 58.5%.

Question: What about the viability, T/C (second compound 10 µM, first compound 0.316 µM) of the same compound?
Answer: Its viability, T/C is 37.2%.

Question: What about the viability, T/C (second compound 10 µM, first compound 1 µM) of the same compound?
Answer: The viability, T/C was 6.55%.

Question: And the viability, T/C (second compound 10 µM, first compound 3.16 µM)?
Answer: The viability, T/C was 1.99%.

Question: What about the viability, T/C (second compound 10 µM, first compound 10 µM) of the same compound?
Answer: Its viability, T/C is 0.42%.

Question: Which IC50 (second compound 0.1 µM) does the source give for `CCN(c1cc(-c2ccc(CN3CCOCC3)cc2)cc(C(=O)NCc2c(C)cc(C)[nH]c2=O)c1C)C1CCOCC1` + Cc1cncc(-c2nc(NCCc3c[nH]c4ccccc34)c3ncn(C(C)C)c3n2)c1 here?
Answer: The IC50 was > 3000 nM.

Question: What about the IC50 (second compound 0.316 µM) of the same compound?
Answer: The IC50 was > 3000 nM.

Question: And the IC50 (second compound 1 µM)?
Answer: Its IC50 is > 3000 nM.

Question: What about the IC50 (second compound 3.16 µM) of the same compound?
Answer: The IC50 was > 3000 nM.

Question: What about the IC50 (second compound 10 µM) of the same compound?
Answer: Its IC50 is 652 nM.

Question: What about the viability, T/C [1] of the same compound?
Answer: The viability, T/C was 106%.

Question: What about the viability, T/C [2] of the same compound?
Answer: The viability, T/C was 89.7%.

Question: And the viability, T/C [3]?
Answer: The viability, T/C was 108%.

Question: And the viability, T/C [4]?
Answer: Its viability, T/C is 102%.

Question: What about the viability, T/C [5] of the same compound?
Answer: Its viability, T/C is 94%.

Question: What about the viability, T/C [6] of the same compound?
Answer: The viability, T/C was 98.5%.

Question: What about the viability, T/C [7] of the same compound?
Answer: Its viability, T/C is 91.8%.

Question: What about the viability, T/C [8] of the same compound?
Answer: Its viability, T/C is 110%.

Question: And the viability, T/C [9]?
Answer: The viability, T/C was 102%.

Question: What about the viability, T/C [10] of the same compound?
Answer: Its viability, T/C is 101%.

Question: What about the viability, T/C [11] of the same compound?
Answer: Its viability, T/C is 106%.

Question: What about the viability, T/C [12] of the same compound?
Answer: Its viability, T/C is 103%.

Question: And the viability, T/C [13]?
Answer: Its viability, T/C is 98%.

Question: What about the viability, T/C [14] of the same compound?
Answer: Its viability, T/C is 115%.

Question: And the viability, T/C [15]?
Answer: Its viability, T/C is 115%.

Question: What about the viability, T/C [16] of the same compound?
Answer: Its viability, T/C is 102%.

Question: What about the viability, T/C [17] of the same compound?
Answer: The viability, T/C was 111%.

Question: And the viability, T/C [18]?
Answer: The viability, T/C was 107%.

Question: And the viability, T/C [19]?
Answer: Its viability, T/C is 102%.

Question: What about the viability, T/C [20] of the same compound?
Answer: The viability, T/C was 103%.

Question: And the viability, T/C [21]?
Answer: The viability, T/C was 103%.

Question: And the viability, T/C [22]?
Answer: Its viability, T/C is 105%.

Question: What about the viability, T/C [23] of the same compound?
Answer: Its viability, T/C is 90.7%.

Question: What about the viability, T/C [24] of the same compound?
Answer: Its viability, T/C is 119%.

Question: What about the viability, T/C [25] of the same compound?
Answer: The viability, T/C was 84.8%.

Question: What about the viability, T/C [26] of the same compound?
Answer: The viability, T/C was 98.5%.

Question: And the viability, T/C [27]?
Answer: Its viability, T/C is 82.9%.

Question: And the viability, T/C [28]?
Answer: The viability, T/C was 72.1%.

Question: What about the viability, T/C [29] of the same compound?
Answer: The viability, T/C was 39.6%.

Question: What about the viability, T/C [30] of the same compound?
Answer: Its viability, T/C is 9.95%.
